Here are results for 27 molecules from patent US20090093485A1, “Novel Sulphonamide Derivatives as Glucocorticoid Receptor Modulators for the Treatment of Inflammatory Diseases” (ASTRAZENECA AB, priority 2004, published 2009).

In the experiment the target is T1, recombinant human GR (Homo sapiens, UniProt P04150).
T1 construct: purchased Panvera/Invitrogen P2812 (kit P2893)
T1 sequence (P04150 1-777): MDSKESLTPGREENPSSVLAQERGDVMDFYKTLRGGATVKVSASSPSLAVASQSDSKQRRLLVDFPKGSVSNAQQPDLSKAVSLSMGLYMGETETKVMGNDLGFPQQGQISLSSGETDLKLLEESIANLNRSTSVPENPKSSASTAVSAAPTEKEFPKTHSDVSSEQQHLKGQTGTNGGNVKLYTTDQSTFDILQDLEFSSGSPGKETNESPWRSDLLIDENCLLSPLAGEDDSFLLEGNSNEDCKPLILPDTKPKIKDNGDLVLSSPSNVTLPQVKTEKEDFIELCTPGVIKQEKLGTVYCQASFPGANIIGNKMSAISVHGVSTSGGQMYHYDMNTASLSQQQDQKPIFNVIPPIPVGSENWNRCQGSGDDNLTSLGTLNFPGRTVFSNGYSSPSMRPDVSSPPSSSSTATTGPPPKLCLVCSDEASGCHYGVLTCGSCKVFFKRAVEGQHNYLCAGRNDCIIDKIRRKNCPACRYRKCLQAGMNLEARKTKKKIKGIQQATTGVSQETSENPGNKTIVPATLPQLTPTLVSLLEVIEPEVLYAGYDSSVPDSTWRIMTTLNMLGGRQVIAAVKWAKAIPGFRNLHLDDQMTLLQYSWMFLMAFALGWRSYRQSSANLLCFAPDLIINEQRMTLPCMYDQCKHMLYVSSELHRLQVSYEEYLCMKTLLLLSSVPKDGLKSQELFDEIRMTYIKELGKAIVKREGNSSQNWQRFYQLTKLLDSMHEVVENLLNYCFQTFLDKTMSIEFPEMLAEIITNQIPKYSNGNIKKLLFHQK
Put plainly: Human Glucocorticoid Receptor (GR) Assay (fluorescence polarization, Panvera/Invitrogen kit). In kind it is binding. As to conditions: GS Red tracer, incubated at room temperature for 2 hours, 100% control 10 μM Dexamethasone, read-out: GRhuFL_FP_v2 (GR-binders) IC50. The method, then: Human Glucocorticoid Receptor (GR) Assay
The assay is based on a commercial kit from Panvera/Invitrogen (Part number P2893). The assay technology is fluorescence polarization. The kit utilises recombinant human GR (Panvera, Part number P2812), a Fluoromone™ labelled tracer (GS Red, Panvera, Part number P2894) and a Stabilizing Peptide 10X (Panvera, Part number P2815). The GR and Stabilizing Peptide reagents are stored at −70° C. while the GS Red is stored at −20° C. Also included in the kit are 1M DTT (Panvera, Part number P2325, stored at −20° C.) and GR Screening buffer 10X (Panvera, Part number P2814, stored at −70° C. initially but once thawed stored at room temperature). Avoid repeated freeze/thaws for all reagents. The GR Screening buffer 10X comprises 100 mM potassium phosphate, 200 mM sodium molybdate, 1 mM EDTA and 20% DMSO.
Test compounds (1 μL) and controls (1 μL) in 100% DMSO were added to black polystyrene 384-well plates (Greiner low volume black flat-bottom, part number 784076). […] was 100% DMSO and 100% control was 10 μM Dexamethasone. Background solution (8 μL; assay buffer 10X, Stabilizing Peptide, DTT and ice cold MQ water) was added to the background wells. GS Red solution (7 μL; assay buffer 10X, Stabilizing Peptide, DTT, GS Red and ice cold water) was added to all wells except background wells. GR solution (7 μL; assay buffer 10X, Stabilizing Peptide, DTT, GR and ice cold water) was added to all wells. The plate was sealed and incubated in a dark at room temperature for 2 hours. The plate was read in an Analyst plate reader (LJL Biosystems/Molecular Devices Corporation) or other similar plate reader capable of recording fluorescence polarization (excitation wavelength 530 nm, emission wavelength […] and a dichroic mirror at 561 nm). The IC50 values were calculated using XLfit model 205.
In general terms: Fluorescence polarisation rises when a labelled molecule tumbles more slowly, as on binding a larger partner.

By IC50 is commonly meant the concentration at which inhibition is half-maximal. In the case of `Cc1csc(NC(=O)CN(CC(C)C)S(=O)(=O)c2cccc3ccccc23)n1` [Example 7], the IC50 amounted to 700 nM.
In the case of `Cc1cc(C)c(S(=O)(=O)N[C@@H](C)COc2cccc3cnccc23)c(C)c1` [Example 77, N-[(1S)-2-(5-Isoquinolinyloxy)-1-methylethyl]-2,4,6-trimethylbenzenesulfonamide], the IC50 stood at 17 nM.
Regarding `Cc1cc(Br)ccc1S(=O)(=O)NC(C)CCc1ccccc1` (stereo not drawn) [Example 19, 4-Bromo-2-methyl-N-(1-methyl-3-phenyl-propyl)-benzenesulfonamide], the IC50 came to 540 nM.
On to `Cc1cc(C)c(S(=O)(=O)N[C@@H](C)CNc2c(C)ccc3ncccc23)c(C)c1` [Example 124, 2,4,6-Trimethyl-N-{(1S)-1-methyl-2-[(6-methylquinolin-5-yl)amino]ethyl}-benzenesulfonamide], for which the half-inhibitory concentration (IC50) worked out at 20 nM.
Turning to `Cc1cc(NC(=O)CN(C2CCCCC2)S(=O)(=O)c2cccc3ccccc23)no1` [Example 12], the IC50 was found to be 6000 nM.
As for `Cc1cc(NC(=O)CN(CC2CCCCC2)S(=O)(=O)c2cccc3ccccc23)no1` [Example 13], the IC50 amounted to 2200 nM.
Turning to `Cc1cc(C)c(S(=O)(=O)N[C@@H](C)COc2ccc3c(c2)OCO3)c(C)c1` [Example 80, N-[(1S)-2-(1,3-Benzodioxol-5-yloxy)-1-methylethyl]-2,4,6-trimethylbenzenesulfonamide], the IC50 was determined as 230 nM.
The result for `CCOc1ccc(S(=O)(=O)NCCc2ccc(S(N)(=O)=O)cc2)c2cccnc12` [Example 6] reads 700 nM; that for `Cc1cc(C)c(S(=O)(=O)N[C@@H](C)COc2cccc3ncccc23)c(C)c1` [Example 79, 2,4,6-Trimethyl-N-[(1S)-1-methyl-2-(5-quinolinyloxy)ethyl]benzenesulfonamide], 140 nM.
Regarding `CC(C)c1cc(C(C)C)c(S(=O)(=O)NCc2ccncc2)c(C(C)C)c1` [Example 10], the IC50 amounted to 600 nM.
Under `Cc1cc(C)c(S(=O)(=O)N[C@@H](C)CNc2cccc3[nH]ncc23)c(C)c1` [Example 125, N-[(1S)-2-(1H-Indazol-4-ylamino)-1-methylethyl]-2,4,6-trimethylbenzenesulfonamide] stands 42 nM; under `Cc1cc(C)c(S(=O)(=O)NC(C)CCc2ccccc2)c(C)c1` (stereo not drawn) [Example 32, 2,4,6-Trimethyl-N-(1-methyl-3-phenyl-propyl)-benzenesulfonamide], 90 nM; under `Cc1cc(C)c(S(=O)(=O)NCCc2c(C)[nH]c3ccc(C)cc23)c(C)c1` [Example 8], 1200 nM.
The result for `Cc1cc(C)c(S(=O)(=O)N[C@@H](C)COc2cccc3cccnc23)c(C)c1` [Example 83, 2,4,6-Trimethyl-N-[(1S)-1-methyl-2-(8-quinolinyloxy)ethyl]benzenesulfonamide] reads 8900 nM; that for `O=[N+]([O-])c1cc(Cl)ccc1NCCCNS(=O)(=O)c1ccc2ccccc2c1` [Example 5], 640 nM; that for `Cc1nn(-c2ccccc2)c(C)c1S(=O)(=O)N[C@@H](C)COc1cccc2cnccc12` [Example 160, N-[(1S)-2-(Isoquinolin-5-yloxy)-1-methylethyl]-3,5-dimethyl-1-phenyl-1-pyrazole-4-sulfonamide], 96 nM.
The result for `C=CCN(c1nc(C)c(Cl)c(OC)n1)S(=O)(=O)c1ccc(C)cc1` [Example 14] reads 1700 nM; that for `CCNc1nc(NC(C)C)nc(OCCNS(=O)(=O)c2cc(C)ccc2C)n1` [Example 15], 6300 nM.
As to `CCCN(c1nc(C)c(Cl)c(OC)n1)S(=O)(=O)c1ccc(C)cc1` [Example 9], the IC50 was 1600 nM.
For the molecule `CCCCOc1ccc(NS(=O)(=O)c2cccc3c(N(C)C)cccc23)cn1` [Example 16], the IC50 was found to be 4400 nM.
Under `Cc1cc(C)c(S(=O)(=O)N[C@@H](C)COc2ncnc3ccccc23)c(C)c1` [Example 82, 2,4,6-Trimethyl-N-[(1S)-1-methyl-2-(4-quinazolinyloxy)ethyl]benzenesulfonamide] stands 3400 nM; under `Cc1cc(C)c(S(=O)(=O)N[C@@H](C)COc2cccc3[nH]ccc23)c(C)c1` [Example 78, N-[(1S)-2-(1H-Indol-4-yloxy)-1-methylethyl]-2,4,6-trimethylbenzenesulfonamide], 23 nM; under `Cc1cc(C)c(S(=O)(=O)N[C@@H](C)COc2ccnc3ccccc23)c(C)c1` [Example 81, 2,4,6-Trimethyl-N-[(1S)-1-methyl-2-(4-quinolinyloxy)ethyl]benzenesulfonamide], 370 nM.
The result for `Cc1cccc(C)c1OCC(C)NS(=O)(=O)c1cccc([N+](=O)[O-])c1` (stereo not drawn) [Example 34, N-[2-(2,6-Dimethyl-phenoxy)-1-methyl-ethyl]-3-nitro-benzenesulfonamide] reads 3000 nM; that for `Cc1cc(C)c(S(=O)(=O)N[C@@H](C)CNc2ccc(C)c3ncccc23)c(C)c1` [Example 123, 2,4,6-Trimethyl-N-{(1S)-1-methyl-2-[(8-methylquinolin-5-yl)amino]ethyl}-benzenesulfonamide], 18 nM.
Under `COC(=O)c1c(C)oc2ccc(N(C(=O)c3ccncc3)S(=O)(=O)c3ccc(C)cc3C)cc12` [Example 11] stands 2200 nM; under `Cc1cc(C)c(S(=O)(=O)N[C@@H](C)CNc2cccc3ncccc23)c(C)c1` [Example 126, 2,4,6-Trimethyl-N-[(1S)-1-methyl-2-(quinolin-5-Ylamino)ethyl]benzenesulfonamide], 75 nM.
